Like-named read-outs stand apart in the source and are kept apart here.
Key:
Assay type in all cases: cell-based
Cercospora sojina = assay: Activity against Cercospora sojina in the microtiter test; details: single active, 7 days after inoculation
Source text: Synergism can be described as an interaction where the combined effect of two or more compounds is greater than the sum of the individual effects of each of the compounds. The presence of a synergistic effect in terms of percent control or efficacy, between two mixing partners (X and Y) can be calculated using the Colby equation (Colby, S. R., 1967, Calculating Synergistic and Antagonistic Responses in Herbicide Combinations, Weeds, 15, 20-22): The measured parameters were compared to the growth of the active compound-free control variant (100%) and the fungus-free blank value to determine the relative growth in % of the pathogens in the respective active compounds. These percentages were converted into efficacies. […] The expected efficacies of active compound mixtures were determined using Colby's formula [R. S. Colby, “Calculating synergistic and antagonistic responses of herbicide combinations”, Weeds 15, 20-22 (1967)] and compared with the observed efficacies. […] The stock solutions were mixed according to the ratio, pipetted onto a micro titer plate (MTP) and diluted with water to the stated concentrations. A spore suspension of Cercospora sojina in an aqueous biomalt or yeast-bactopeptone-sodiumacetate solution was then added. The plates were placed in a water vapor-saturated chamber at a temperature of 18° C. Using an absorption photometer, the MTPs were measured at 405 nm 7 days after the inoculation.

Rhynchosporium secalis = assay: Activity against Rhynchosporium secalis in the microtiterplate test; details: single active, 63 ppm, 7 days after inoculation
Source text: Synergism can be described as an interaction where the combined effect of two or more compounds is greater than the sum of the individual effects of each of the compounds. The presence of a synergistic effect in terms of percent control or efficacy, between two mixing partners (X and Y) can be calculated using the Colby equation (Colby, S. R., 1967, Calculating Synergistic and Antagonistic Responses in Herbicide Combinations, Weeds, 15, 20-22): The measured parameters were compared to the growth of the active compound-free control variant (100%) and the fungus-free blank value to determine the relative growth in % of the pathogens in the respective active compounds. These percentages were converted into efficacies. […] The expected efficacies of active compound mixtures were determined using Colby's formula [R. S. Colby, “Calculating synergistic and antagonistic responses of herbicide combinations”, Weeds 15, 20-22 (1967)] and compared with the observed efficacies. […] The stock solutions were mixed according to the ratio, pipetted onto a micro titer plate (MTP) and diluted with water to the stated concentrations. A spore suspension of Rhynchosporium secalis in an aqueous biomalt or yeast-bactopeptone-glycerine or DOB solution was then added. […] Using an absorption photometer, the MTPs were measured at 405 nm 7 days after the inoculation.

Phytophthora infestans = details: single active, 7 days after inoculation
Botrytis cinerea = assay: Activity against the grey mold Botrytis cinerea in the microtiterplate test; details: single active, 7 days after inoculation
Source text: Synergism can be described as an interaction where the combined effect of two or more compounds is greater than the sum of the individual effects of each of the compounds. The presence of a synergistic effect in terms of percent control or efficacy, between two mixing partners (X and Y) can be calculated using the Colby equation (Colby, S. R., 1967, Calculating Synergistic and Antagonistic Responses in Herbicide Combinations, Weeds, 15, 20-22): The measured parameters were compared to the growth of the active compound-free control variant (100%) and the fungus-free blank value to determine the relative growth in % of the pathogens in the respective active compounds. These percentages were converted into efficacies. […] The expected efficacies of active compound mixtures were determined using Colby's formula [R. S. Colby, “Calculating synergistic and antagonistic responses of herbicide combinations”, Weeds 15, 20-22 (1967)] and compared with the observed efficacies. […] The stock solutions were mixed according to the ratio, pipetted onto a micro titer plate (MTP) and diluted with water to the stated concentrations. A spore suspension of Botrci cinerea in an aqueous biomalt or yeast-bactopeptone-sodiumacetate solution was then added. The plates were placed in a water vapor-saturated chamber at a temperature of 18° C.

Septoria tritici = assay: Activity against leaf blotch on wheat caused by Septoria tritici (microtiter plate); details: single active, 7 days after inoculation
Source text: Synergism can be described as an interaction where the combined effect of two or more compounds is greater than the sum of the individual effects of each of the compounds. The presence of a synergistic effect in terms of percent control or efficacy, between two mixing partners (X and Y) can be calculated using the Colby equation (Colby, S. R., 1967, Calculating Synergistic and Antagonistic Responses in Herbicide Combinations, Weeds, 15, 20-22): The measured parameters were compared to the growth of the active compound-free control variant (100%) and the fungus-free blank value to determine the relative growth in % of the pathogens in the respective active compounds. These percentages were converted into efficacies. […] The expected efficacies of active compound mixtures were determined using Colby's formula [R. S. Colby, “Calculating synergistic and antagonistic responses of herbicide combinations”, Weeds 15, 20-22 (1967)] and compared with the observed efficacies. […] The stock solutions were mixed according to the ratio, pipetted onto a micro titer plate (MTP) and diluted with water to the stated concentrations. A spore suspension of Septoria tritici in an aqueous biomalt or yeast-bactopeptone-glycerine or DOB solution was then added. The plates were placed in a water vapor-saturated chamber at a temperature of 18° C. Using an absorption photometer, the MTPs were measured at 405 nm 7 days after the inoculation.

[1] = system: Colletotrichum orbiculare; assay: Activity against Colletotrichum orbiculare in the microtiterplate test; details: single active, 7 days after inoculation
Sclerotinia sclerotiorum = assay: Activity against Sclerotinia sclerotiorum in the microtiterplate test; details: single active, 7 days after inoculation

COc1ccnc(C(=O)N[C@@H](C)C(=O)O[C@@H](C)C(c2ccc(F)cc2)c2ccc(F)cc2)c1OC(C)=O [Florylpicoxamid, florylpicoxamid, reference compound]
Observed efficacy (Cercospora sojina; 0.25 ppm): 6%
Observed efficacy (Cercospora sojina; 16 ppm): 61%

N#Cc1ccc(Oc2ccc(C(F)(F)C(O)(Cn3ncnc3S)c3ccc(F)cc3F)nc2)cc1 (centres unmarked) [B.5)d), 4-[[6-[2-(2,4-difluorophenyl)-1,1-difluoro-2-hydroxy-3-(5-sulfanyl-1,2,4-triazol-1-yl)propyl]-3-pyridyl]oxy]benzonitrile]
Observed efficacy (Rhynchosporium secalis): 70%

Cc1cc(C(F)(F)F)nn1CC(=O)N1CCC(c2nc(C3=NOC(c4c(F)cccc4F)C3)cs2)CC1 (centres unmarked) [Oxathiapiproline, oxathiapiprolin, reference compound]
Observed efficacy (Phytophthora infestans; 0.016 ppm): 0%
Observed efficacy (Phytophthora infestans; 0.063 ppm): 11%

CC(C)c1ccc(Cl)cc1CN(C(=O)c1c(C(F)F)nn(C)c1F)C1CC1 [Isoflucypram, isoflucypram, reference compound]
Observed efficacy (Botrytis cinerea; 0.25 ppm): 57%
Observed efficacy (Septoria tritici; 0.063 ppm): 40%

CON(C(=O)c1cn(C)nc1C(F)F)C(C)Cc1c(Cl)cc(Cl)cc1Cl (centres unmarked) [Pydiflumetofen, pydiflumetofen, reference compound]
Observed efficacy (Botrytis cinerea; 0.063 ppm): 42%
Observed efficacy ([1]; 16 ppm): 59%

pyrapropoyne [reference compound]
Observed efficacy (Botrytis cinerea; 1 ppm): 26%
Observed efficacy (Sclerotinia sclerotiorum; 1 ppm): 27%

CCN(C(=O)c1cnn(C(C)C(C)C)c1C)c1ccnnc1 (racemic) [Dimpropyridaz, 1-[(1 RS)-1,2-dimethylpropyl]-N-ethyl-5-methyl-N-pyridazin-4-yl-1H-pyrazole-4-carboxamide]
Observed efficacy (Phytophthora infestans; 0.016 ppm): 0%
Observed efficacy (Phytophthora infestans; 0.063 ppm): 4%
Observed efficacy (Botrytis cinerea; 0.063 ppm): 0%
Observed efficacy (Botrytis cinerea; 0.25 ppm): 1%
Observed efficacy (Botrytis cinerea; 1 ppm): 0%
Observed efficacy (Septoria tritici; 0.063 ppm): 5%
Observed efficacy (Septoria tritici; 0.25 ppm): 7%
Observed efficacy (Cercospora sojina; 0.25 ppm): 0%
Observed efficacy (Cercospora sojina; 63 ppm): 23%
Observed efficacy ([1]; 63 ppm): 14%
Observed efficacy (Rhynchosporium secalis): 12%
Observed efficacy (Sclerotinia sclerotiorum; 0.25 ppm): 0%
